Experimental data reported in US20140221639A1, “RADIOLABELED NUCLEOSIDE ANALOGUE, AND PREPARATION METHOD AND USE THEREOF” (Institute of Nuclear Energy Research Atomic Energy Council, …, priority 2011, published 2014).
Values joined by “and” are separate entries in the source; they are usually repeats but may differ in a detail not shown here. Equal entries are not always repeated. Where two headings read alike, the source gives them in different places.

What was measured:
[1] = Analysis of metabolites in blood and urine through NP-TLC; format: in vivo, FVB/N mice; settings: NP-TLC CH2Cl2/MeOH = 15/1
Method: Blood samples were obtained by heart puncture, and then centrifuged at 13,000 rpm for 10 min. Then, the supernatant (about 300 μL) was placed in a 1.5 mL centrifuge tube containing equal amount of ethanol, and then centrifuged again to obtain the serum.

NG4TL4 sarcoma cells = assay: Study on incorporation in DNA; format: cell-based; settings: 1 μCi/mL medium, 0.5-8 h
Method: DNA was extracted with Genomic DNA Mini Kit (Geneaid Biotech Ltd., Taiwan). NG4TL4 cell lines were harvested and inoculated into a petri dish at 2×10^6. […] At 0.5, 1, 2, 4 and 8 h after incubation, the medium was removed, and the cells was washed two times with ice-cold PBS, and then sheared with trypsin and collected to a centrifuge tube for centrifugation (at […] for 1 min). The supernatant was removed, while 50 μL remaining buffer was left to keep the cells in suspension. 300 μL cell lysis buffer was added to the sample and uniformly mixed, the cells was cultured in a water bath at 60° C. for a sereral minutes till the solution was transparent (the sample was inversed once every 3 min). 2 μL RNAse (25 mg/mL) was added to the sample and uniformly mixed, after 5-min incubation at room temperature, 100 μL protein removal buffer was added to the sample, uniformly mixed immediately, and centrifuged for 3 min at full speed (14000 rpm) after 5-min incubation on ice. The resulting solution was transferred as a suspension to another tube, and isopropanol was added and thoroughly mixed. […] In the test, DNA purity was determined at absorption wavelengths of 260 nm and 280 nm, and the ratio of absorbances (OD260/OD280) was about 1.7.

NG4TL4-WT tumor = assay: Biodistribution study in tumor-bearing mice; format: in vivo, FVB/N mice; settings: for Biodistribution Blood / Biodistribution Bone / Biodistribution Kidney / Biodistribution Large Intestine / Biodistribution Liver / Biodistribution Lung / Biodistribution Marrow / Biodistribution Pancreas / Biodistribution Stomach / Biodistribution Tumor / Biodistribution Heart / Biodistribution Spleen / Biodistribution Small Intestine / Biodistribution Muscle: 80~90 μCi tail vein, FVB/N mice with NG4TL4-WT tumor
Excerpt: […] Tumor and 13 other tissures (blood, heart, lung, liver, stomach, small intestine, large intestine, spleen, pancreas, kidney, bone, marrow, and muscle) were removed, rinsed, weighed, and determined for radioactivity with a γ scintilation counter. Uptake of the radioactive trancers in the tissues (counts per min) was calibrated against decay, normalizedto sample weight, and expressed as percentages of injected dosage per gram of tissue (% ID/g) and aggregation ratio of tumor to blood.

LL/2 cells = assay: Cellular uptake test (ratio of cell to medium); format: cell-based; settings: 1, 2, 4 and 8 h
Method: (§1) 2×10^6 cells was inoculated in a 15 cm^2 dish containing 14 mL medium supplemented with 10% FBS. […] At specified time points (using I-131 tracer at 1, 2, 4 and 8_h), the cells on the dish was harvested by using a cell scraper. Then, a cell suspension was transferred to a 15 mL centrifuge tube and centrifuged (at 3500 rpm) for 2 min. After centrifugation, 100 μL centrifugate was collected to a preweighed counting tube and directly poured into a maintained medium. Cell pellets were frozen with dry ice, and further collected into another weighed counting tube. […] Accumulation of activity of radioactive trancer in cell in vitro is represented by a radio of cell to medium:
(§2) Uptake experimental results of the two radioactive nucleoside analogues [^131I]IUdR and [^131I]ICdR in cells are as shown in FIGS. 4((a), (b)).

NG4TL4 cells = assay: Cellular uptake test (ratio of cell to medium); format: cell-based; settings: 1, 2, 4 and 8 h
Method: as §1, §2

[2] = healthy FVB/N mice, intravenous 200 μCi, blood radioactivity
[3] = 5 min after ^131I-IUdR at tail vein
[4] = 15 min after ^131I-IUdR at tail vein

- ^131I-IU (%) in Blood [1, 3]: 3.65 ± 3.03%
- ^131I-IU (%) in Urine [1, 3]: 4.45 ± 3.03%
- ^131I-IUdR (%) in Blood [1, 3]: 25.23 ± 2.88%
- ^131I-IUdR (%) in Urine [1, 3]: 8.60 ± 2.88%
- ^131I-I^- (%) in Blood [1, 3]: 71.1% and 71.12 ± 5.83%
- ^131I-I^- (%) in Urine [1, 3]: 88.0% and 86.96 ± 5.83%
- ^131I-IU (%) in Blood [1, 4]: 1.58 ± 0.72%
- ^131I-IU (%) in Urine [1, 4]: 2.76 ± 1.23%
- ^131I-IUdR (%) in Blood [1, 4]: 6.42 ± 3.89%
- ^131I-IUdR (%) in Urine [1, 4]: 5.23 ± 2.05%
- ^131I-I^- (%) in Blood [1, 4]: 92.00 ± 4.51%
- ^131I-I^- (%) in Urine [1, 4]: 92.02 ± 3.27%
- Biodistribution Blood (NG4TL4-WT tumor; 5 min): 13.62 ± 1.19 % ID/g
- Biodistribution Bone (NG4TL4-WT tumor; 5 min): 233 ± 035 % ID/g
- Biodistribution Kidney (NG4TL4-WT tumor; 5 min): 18.81 ± 2.44 % ID/g
- Biodistribution Large Intestine (NG4TL4-WT tumor; 5 min): 7.18 ± 038 % ID/g
- Biodistribution Liver (NG4TL4-WT tumor; 5 min): 15.99 ± 2.06 % ID/g
- Biodistribution Lung (NG4TL4-WT tumor; 5 min): 933 + 0.69 % ID/g
- Biodistribution Marrow (NG4TL4-WT tumor; 5 min): 3.98 ± 1.44 % ID/g
- Biodistribution Pancreas (NG4TL4-WT tumor; 5 min): 6.43 ± 0.41 % ID/g
- Biodistribution Stomach (NG4TL4-WT tumor; 5 min): 7.04 ± 0.98 % ID/g
- Biodistribution Tumor (NG4TL4-WT tumor; 5 min): 635 ± 1.93 % ID/g
- Biodistribution Blood (NG4TL4-WT tumor; 30 min): 835 ± 132 % ID/g
- Biodistribution Bone (NG4TL4-WT tumor; 30 min): 2.55 ± 030 % ID/g
- Biodistribution Heart (NG4TL4-WT tumor; 30 min): 3.15 ± 0.4S
- Biodistribution Kidney (NG4TL4-WT tumor; 30 min): 6.95 ± 0.77 % ID/g
- Biodistribution Large Intestine (NG4TL4-WT tumor; 30 min): 5.43 ± 0.88 % ID/g
- Biodistribution Liver (NG4TL4-WT tumor; 30 min): 3.73 ± 0.57 % ID/g
- Biodistribution Lung (NG4TL4-WT tumor; 30 min): 5.80 ± 0.42 % ID/g
- Biodistribution Marrow (NG4TL4-WT tumor; 30 min): 538 ± 1.57 % ID/g
- Biodistribution Pancreas (NG4TL4-WT tumor; 30 min): 5.52 ± 0.84 % ID/g
- Biodistribution Spleen (NG4TL4-WT tumor; 30 min): 6.79 ± 1.66 % ID/g
- Biodistribution Stomach (NG4TL4-WT tumor; 30 min): 24.71 ± 3.20 % ID/g
- Biodistribution Tumor (NG4TL4-WT tumor; 30 min): 6.11 ± 0.97 % ID/g
- Biodistribution Blood (NG4TL4-WT tumor; 1 h): 6.41 ± 036 % ID/g
- Biodistribution Bone (NG4TL4-WT tumor; 1 h): 1.59 ± 039 % ID/g
- Biodistribution Heart (NG4TL4-WT tumor; 1 h): 2.43 ± 0.56 % ID/g
- Biodistribution Large Intestine (NG4TL4-WT tumor; 1 h): 4.73 ± 1.16 % ID/g
- Biodistribution Liver (NG4TL4-WT tumor; 1 h): 2.68 ± 0.48 % ID/g
- Biodistribution Marrow (NG4TL4-WT tumor; 1 h): 9.86 ± 4.50 % ID/g
- Biodistribution Pancreas (NG4TL4-WT tumor; 1 h): 2.84 ± 0.57 % ID/g
- Biodistribution Small Intestine (NG4TL4-WT tumor; 1 h): 6.80 ± 0.81 % ID/g
- Biodistribution Spleen (NG4TL4-WT tumor; 1 h): 4.18 ± 035 % ID/g
- Biodistribution Tumor (NG4TL4-WT tumor; 1 h): 6.61 ± 033 % ID/g
- Biodistribution Blood (NG4TL4-WT tumor; 2 h): 4.19 ± 0.60 % ID/g
- Biodistribution Bone (NG4TL4-WT tumor; 2 h): 132 ± 033 % ID/g
- Biodistribution Liver (NG4TL4-WT tumor; 2 h): 1.67 ± 0.18 % ID/g
- Biodistribution Lung (NG4TL4-WT tumor; 2 h): 2.86 ± 0.55 % ID/g
- Biodistribution Marrow (NG4TL4-WT tumor; 2 h): 6.88 ± 1.19 % ID/g
- Biodistribution Muscle (NG4TL4-WT tumor; 2 h): 0.93 ± 0.14 % ID/g
- Biodistribution Pancreas (NG4TL4-WT tumor; 2 h): 2.50 ± 0.58 % ID/g
- Biodistribution Small Intestine (NG4TL4-WT tumor; 2 h): 6.77 ± 1.50 % ID/g
- Biodistribution Spleen (NG4TL4-WT tumor; 2 h): 3.60 ± 0.40 % ID/g
- Biodistribution Stomach (NG4TL4-WT tumor; 2 h): 15.93 + 333 % ID/g
- Biodistribution Tumor (NG4TL4-WT tumor; 2 h): 5.63 ± 0.74 % ID/g
- Biodistribution Blood (NG4TL4-WT tumor; 4 h): 1.96 ± 0.49 % ID/g
- Biodistribution Bone (NG4TL4-WT tumor; 4 h): 0.62 ± 0.29 % ID/g
- Biodistribution Heart (NG4TL4-WT tumor; 4 h): 0.88 ± 0.46 % ID/g
- Biodistribution Kidney (NG4TL4-WT tumor; 4 h): 1.77 ± 0.71 % ID/g
- Biodistribution Lung (NG4TL4-WT tumor; 4 h): 1.60 ± 0.71 % ID/g
- Biodistribution Marrow (NG4TL4-WT tumor; 4 h): 6.63 ± 3.84 % ID/g
- Biodistribution Muscle (NG4TL4-WT tumor; 4 h): 0.53 ± 0.26 % ID/g
- Biodistribution Pancreas (NG4TL4-WT tumor; 4 h): 1.18 ± 0.56 % ID/g
- Biodistribution Small Intestine (NG4TL4-WT tumor; 4 h): 4.76 ± 1.26 % ID/g
- Biodistribution Spleen (NG4TL4-WT tumor; 4 h): 1.86 ± 0.63 % ID/g
- Biodistribution Stomach (NG4TL4-WT tumor; 4 h): 4.49 ± 3.02 % ID/g
- Biodistribution Tumor (NG4TL4-WT tumor; 4 h): 3.97 ± 1.00 % ID/g
- Biodistribution Blood (NG4TL4-WT tumor; 8 h): 0.48 ± 0.23 % ID/g
- Biodistribution Bone (NG4TL4-WT tumor; 8 h): 036 ± 0.12 % ID/g
- Biodistribution Heart (NG4TL4-WT tumor; 8 h): 0.19 ± 0.09 % ID/g
- Biodistribution Kidney (NG4TL4-WT tumor; 8 h): 0.56 ± 0.21 % ID/g
- Biodistribution Large Intestine (NG4TL4-WT tumor; 8 h): 1.78 ± 0.57 % ID/g
- Biodistribution Lung (NG4TL4-WT tumor; 8 h): 0.44 ± 0.21 % ID/g
- Biodistribution Marrow (NG4TL4-WT tumor; 8 h): 5.00 ± 1.59 % ID/g
- Biodistribution Muscle (NG4TL4-WT tumor; 8 h): 0.13 ± 0.03 % ID/g
- Biodistribution Small Intestine (NG4TL4-WT tumor; 8 h): 3.40 ± 0.60 % ID/g
- Biodistribution Tumor (NG4TL4-WT tumor; 8 h): 2.50 ± 0.79 % ID/g
- excretion of drug and metabolites (NG4TL4-WT tumor; mice): mainly through the urinary system
- Cmax [2]: 18.91 ± 6.16 % ID/mL
- t1/2α [2]: 4.8 ± 1.2 min
- t1/2β [2]: 2.28 ± 0.90 h
- Cmax ([2]; listed as 131I-IudR): 18.91±6.16 % ID/mL
- t1/2α ([2]; listed as 131I-IudR): 4.8 ± 1.2 min
- t1/2β ([2]; listed as 131I-IudR): 2.28 ± 0.90 h
SMILES: O=c1[nH]c(=O)n([C@H]2C[C@H](O)[C@@H](CO)O2)cc1[131I] [^131I-IUdR, 5-[^124/131I]iodo-2′-deoxyuridine, reference compound]
- incorporation into cells / radioactive accumulation in DNA with time (NG4TL4 sarcoma cells): linearly incorporated
- accumulation in organs (biodistribution and imaging) (NG4TL4-WT tumor; tumor-bearing mice): obviously accumulated in organs that rapidly proliferates
- uptake value over time (LL/2 cells): continuously increased with time
- uptake value over time (NG4TL4 cells): continuously increased with time
